Assay results taken from patent US20150105252A1, “SUBSTITUTED PYRAZOLES AS HERBICIDES” (E I DU PONT DE NEMOURS AND COMPANY, priority 2013, published 2015).

Tests used:
corn = assay: Test C postemergence; assay type: in vivo, Zea mays; conditions: for Plant response rating (scale of 0 to 100 where 0 is no effect and 100 is complete control), Corn: Postemergence, 31 g ai/ha, visually evaluated after 13 to 15 days; for Corn plant response rating / Plant response rating, Corn: postemergence; for Corn plant response rating: 62 g ai/ha, scale 0 to 100
Method in brief: (§1)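 Seeds were sown in a loam soil–sand blend and sprayed preemergence with compounds formulated in a non-phytotoxic solvent mixture containing surfactant. Postemergence plants, grown in peat/vermiculite medium to 2–18 cm (1- to 4-leaf stage), received the same formulation. After 13 to 15 days in a greenhouse, injury was rated visually against controls (0 = no effect, 100 = complete control).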

ragweed = assay: Test C preemergence; assay type: in vivo, Ambrosia elation; conditions: preemergence; for Plant response rating, Ragweed: 125 g ai/ha, scale 0 to 100, 0 = no effect, 100 = complete control
Method in brief: as §1

ryegrass, Italian [1] = assay: Test C postemergence; assay type: in vivo, Lolium multiflorum; conditions: postemergence
Method in brief: as §1

lambsquarters = assay: Test C postemergence; assay type: in vivo, Chenopodium album; conditions: for Plant response rating (scale of 0 to 100 where 0 is no effect and 100 is complete control), Lambsquarters: Postemergence, 31 g ai/ha, visually evaluated after 13 to 15 days; for Lambsquarters plant response rating / Plant response rating, Lambsquarters: postemergence; for Lambsquarters plant response rating: 62 g ai/ha, scale 0 to 100
Method in brief: as §1

waterhemp [2] = assay: Test C preemergence; assay type: in vivo, Amaranthus rudis; conditions: preemergence; for Plant response rating, Waterhemp: 125 g ai/ha, scale 0 to 100, 0 = no effect, 100 = complete control
Method in brief: as §1

pigweed = assay: Test A postemergence; assay type: in vivo, Amaranthus retroflexus; conditions: Postemergence
Method in brief: (§2)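 Scoring was visual, on a scale where 100 means complete control and 0 means no effect, comparing treated with untreated plants around 10 days post-application. Compounds in surfactant-containing non-phytotoxic solvent were sprayed onto soil preemergence or onto one- to two-leaf seedlings (2–10 cm) postemergence.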

wheat = assay: Test A preemergence; assay type: in vivo, Triticum aestivum; conditions: preemergence; for Wheat plant response rating (0 to 100 scale): 125 g ai/ha, visual injury approx. 10 days after treatment; for Wheat plant response rating: 500 g ai/ha, visual injury after approx. 10 days, 0 to 100 scale (0 no effect, 100 complete control)
Method in brief: as §2

crabgrass, large = assay: Test C preemergence; assay type: in vivo, Digitaria sanguinalis; conditions: preemergence; for Plant response rating, Crabgrass, Large: 125 g ai/ha, scale 0 to 100, 0 = no effect, 100 = complete control
Method in brief: as §1

ducksalad = assay: Test B flood; assay type: in vivo, Heteranthera limosa; conditions: 250 g ai/ha, visual rating on 0 to 100 scale (0 no effect, 100 complete control), 13 to 15 days
Method in brief: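 Plants were grown to the 2-leaf stage and pots flooded to 3 cm above soil. Compounds were applied directly into the paddy water, with depth kept for the test. After 13–15 days in greenhouse, response was rated visually against controls on a 0 (no effect) to 100 (complete control) scale.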

waterhemp [3] = assay: Test C postemergence; assay type: in vivo, Amaranthus rudis; conditions: postemergence; for Plant response rating, Waterhemp: 250 g ai/ha, scale 0 to 100 (0 no effect, 100 complete control); for Waterhemp plant response rating: scale 0 to 100
Method in brief: as §1

ryegrass, Italian [4] = assay: Test C preemergence; assay type: in vivo, Lolium multiflorum; conditions: preemergence; for Plant response rating, Ryegrass, Italian: 125 g ai/ha, scale 0 to 100, 0 = no effect, 100 = complete control
Method in brief: as §1

foxtail, giant = assay: Test C preemergence; assay type: in vivo, Setaria faberii; conditions: preemergence; for Plant response rating, Foxtail, Giant: 125 g ai/ha, scale 0 to 100, 0 = no effect, 100 = complete control
Method in brief: as §1

nutsedge, yellow = assay: Test C preemergence; assay type: in vivo, Cyperus esculentus; conditions: preemergence; for Plant response rating, Nutsedge, Yellow: 125 g ai/ha, scale 0 to 100, 0 = no effect, 100 = complete control
Method in brief: as §1

[5] = 250 g ai/ha, scale 0 to 100 (0 no effect, 100 complete control)
[6] = 125 g ai/ha, scale 0 to 100, 0 no effect, 100 complete control
[7] = 31 g ai/ha, visual rating, scale 0 to 100 (0 no effect, 100 complete control), 13 to 15 days
[8] = 62 g ai/ha, scale 0 to 100 (0 no effect, 100 complete control), 13 to 15 days
[9] = 250 g ai/ha, scale 0 to 100, 0 is no effect, 100 is complete control
[10] = 125 g ai/ha, 0 to 100 scale, 0 no effect, 100 complete control
[11] = 500 g ai/ha, 0 to 100 scale (0 no effect, 100 complete control)

CCCc1cc(C(=O)NC(C)C)nn1Cc1cc(C(F)(F)F)nn1C [Compound 201]
Plant response rating (scale of 0 to 100 where 0 is no effect and 100 is complete control), Corn (corn): 10
Corn plant response rating (corn): 10
Plant response rating, Corn (corn; [5]): 60
Plant response rating, Corn (corn; [6]): 15
Ragweed plant response rating (ragweed; [7]): 80
Ragweed plant response rating (ragweed; [8]): 85
Plant response rating, Ragweed (ragweed; 13 to 15 days): 95
Ragweed plant response rating (ragweed; [9]): 98
Plant response rating, Ryegrass, Italian (ryegrass, Italian [1]; [5]): 15
Plant response rating, Ryegrass, Italian (ryegrass, Italian [1]; [6]): 5
Plant response rating (scale of 0 to 100 where 0 is no effect and 100 is complete control), Lambsquarters (lambsquarters): 65
Lambsquarters plant response rating (lambsquarters): 80
Plant response rating, Lambsquarters (lambsquarters; [5]): 95
Plant response rating, Lambsquarters (lambsquarters; [6]): 90
Waterhemp plant response rating (waterhemp [2]; [7]): 100
Waterhemp plant response rating (waterhemp [2]; [8]): 100
Plant response rating, Waterhemp (waterhemp [2]; 13 to 15 days): 98
Waterhemp plant response rating (waterhemp [2]; [9]): 98
Pigweed plant response rating (pigweed; [10]): 100
Pigweed plant response rating (pigweed; [11]): 100
Wheat plant response rating (0 to 100 scale) (wheat): 80
Wheat plant response rating (wheat): 100
Crabgrass, Large plant response rating (crabgrass, large; [7]): 100
Crabgrass, Large plant response rating (crabgrass, large; [8]): 100
Plant response rating, Crabgrass, Large (crabgrass, large; 13 to 15 days): 100
Crabgrass, Large plant response rating (crabgrass, large; [9]): 100
Plant response rating, Ducksalad (ducksalad): 95
Plant response rating, Waterhemp (waterhemp [3]): 85
Waterhemp plant response rating (waterhemp [3]): 70
Ryegrass, Italian plant response rating (ryegrass, Italian [4]; [7]): 65
Ryegrass, Italian plant response rating (ryegrass, Italian [4]; [8]): 90
Plant response rating, Ryegrass, Italian (ryegrass, Italian [4]; 13 to 15 days): 90
Ryegrass, Italian plant response rating (ryegrass, Italian [4]; [9]): 90
Foxtail, Giant plant response rating (foxtail, giant; [7]): 100
Foxtail, Giant plant response rating (foxtail, giant; [8]): 95
Plant response rating, Foxtail, Giant (foxtail, giant; 13 to 15 days): 100
Foxtail, Giant plant response rating (foxtail, giant; [9]): 100
Nutsedge, Yellow plant response rating (nutsedge, yellow; [7]): 5
Nutsedge, Yellow plant response rating (nutsedge, yellow; [8]): 20
Plant response rating, Nutsedge, Yellow (nutsedge, yellow; 13 to 15 days): 55
Nutsedge, Yellow plant response rating (nutsedge, yellow; [9]): 80

CCCc1cc(C(=O)NC2CC2)nn1Cc1cc(C(F)(F)F)nn1C [Compound 202]
Plant response rating (scale of 0 to 100 where 0 is no effect and 100 is complete control), Corn (corn): 5
Corn plant response rating (corn): 10
Plant response rating, Corn (corn; [5]): 25
Plant response rating, Corn (corn; [6]): 15
Ragweed plant response rating (ragweed; [7]): 75
Ragweed plant response rating (ragweed; [8]): 95
Plant response rating, Ragweed (ragweed; 13 to 15 days): 95
Ragweed plant response rating (ragweed; [9]): 100
Plant response rating, Ryegrass, Italian (ryegrass, Italian [1]; [5]): 5
Plant response rating, Ryegrass, Italian (ryegrass, Italian [1]; [6]): 5
Plant response rating (scale of 0 to 100 where 0 is no effect and 100 is complete control), Lambsquarters (lambsquarters): 70
Lambsquarters plant response rating (lambsquarters): 80
Plant response rating, Lambsquarters (lambsquarters; [5]): 90
Plant response rating, Lambsquarters (lambsquarters; [6]): 85
Waterhemp plant response rating (waterhemp [2]; [7]): 100
Waterhemp plant response rating (waterhemp [2]; [8]): 100
Plant response rating, Waterhemp (waterhemp [2]; 13 to 15 days): 100
Waterhemp plant response rating (waterhemp [2]; [9]): 100
Pigweed plant response rating (pigweed; [10]): 100
Pigweed plant response rating (pigweed; [11]): 100
Wheat plant response rating (0 to 100 scale) (wheat): 30
Wheat plant response rating (wheat): 100
Crabgrass, Large plant response rating (crabgrass, large; [7]): 100
Crabgrass, Large plant response rating (crabgrass, large; [8]): 100
Plant response rating, Crabgrass, Large (crabgrass, large; 13 to 15 days): 100
Crabgrass, Large plant response rating (crabgrass, large; [9]): 100
Plant response rating, Ducksalad (ducksalad): 95
Plant response rating, Waterhemp (waterhemp [3]): 90
Waterhemp plant response rating (waterhemp [3]): 85
Ryegrass, Italian plant response rating (ryegrass, Italian [4]; [7]): 5
Ryegrass, Italian plant response rating (ryegrass, Italian [4]; [8]): 50
Plant response rating, Ryegrass, Italian (ryegrass, Italian [4]; 13 to 15 days): 90
Ryegrass, Italian plant response rating (ryegrass, Italian [4]; [9]): 90
Foxtail, Giant plant response rating (foxtail, giant; [7]): 100
Foxtail, Giant plant response rating (foxtail, giant; [8]): 100
Plant response rating, Foxtail, Giant (foxtail, giant; 13 to 15 days): 100
Foxtail, Giant plant response rating (foxtail, giant; [9]): 100
Nutsedge, Yellow plant response rating (nutsedge, yellow; [7]): 0
Nutsedge, Yellow plant response rating (nutsedge, yellow; [8]): 5
Plant response rating, Nutsedge, Yellow (nutsedge, yellow; 13 to 15 days): 30
Nutsedge, Yellow plant response rating (nutsedge, yellow; [9]): 50
